Measurements reported in patent US20170121344A1 (Siga Technologies, Inc., priority 2009, published 2017).
Where two headings read alike, the source gives them in different places.

Test system: Dengue-2 (Strain New Guinea C)
Test: Viral yield assay against Dengue-2 in Vero cells
Assay type: cell-based, Dengue virus
Settings: Dengue virus, read-out: Activity (EC50 class) against Dengue-2 Virus in Vero cells
Protocol: Compounds that were active in the primary screen were tested for activity in viral yield assays. […] Vero cells in 12-well plates were infected with dengue-2 virus at a multiplicity of infection (MOI) of 0.1, treated with compound (or DMSO as a control), incubated at 37° C., harvested 48 hours post infection and titered on Vero cells as described above. The EC50 was calculated through ExcelFit. Activities against other serotypes of dengue virus were determined in a similar way.

[1] = Vero cells, MOI 0.1, harvested 48 hours post infection

| SMILES | EC50 [1] | EC50 (Vero, 48 h) |
| --- | --- | --- |
| NC(=O)c1sc2nc(-c3cccs3)cc(-c3ccc(F)cc3)c2c1N [Compound 2, 3-Amino-4-(4-fluoro-phenyl)-6-thiophen-2-yl-thieno[2,3-b]pyridine-2-carboxylic acid amide] | < 5 µM |  |
| Nc1c(C(=O)Nc2cccc(C(F)(F)F)c2)sc2nc(-c3cccs3)ccc12 [Compound 3, 3-Amino-6-thiophen-2-yl-thieno[2,3-b]pyridine-2-carboxylic acid (3-trifluoromethyl-phenyl)-amide] | < 5 µM |  |
| Cc1csc(NC(=O)c2sc3nc(C)c4c(c3c2N)CCCC4)n1 [Compound 4, 1-Amino-5-methyl-6,7,8,9-tetrahydro-thieno[2,3-c]isoquinoline-2-carboxylic acid (4-methyl-thiazol-2-yl)-amide] |  | < 5 µM |
| Nc1c(C(=O)Nc2nnc(-c3ccccc3)s2)sc2nc(-c3cccs3)cc(C(F)(F)F)c12 [Compound 5, 3-Amino-6-thiophen-2-yl-4-trifluoromethyl-thieno[2,3-b]pyridine-2-carboxylic acid (5-phenyl-[1,3,4]thiadiazol-2-yl)-amide] | < 5 µM |  |
| N#Cc1c(N)nc2sc(C(=O)Nc3ccc(Br)cc3)c(N)c2c1-c1ccco1 [Compound 6, 3,6-Diamino-5-cyano-4-furan-2-yl-thieno[2,3-b]pyridine-2-carboxylic acid (4-bromo-phenyl)-amide] | < 5 µM |  |
| COc1ccc(-c2cc(C3CC3)nc3sc(C(N)=O)c(N)c23)cc1 [Compound 7, 3-Amino-6-cyclopropyl-4-(4-methoxy-phenyl)-thieno[2,3-b]pyridine-2-carboxylic acid amide] | < 5 µM |  |
| NC(=O)c1sc2nc(C3CC3)cc(-c3ccccc3)c2c1N [Compound 8, 3-Amino-6-cyclopropyl-4-phenyl-thieno[2,3-b]pyridine-2-carboxylic acid amide] | < 5 µM |  |
| Cc1cc(C)c2c(N)c(C(=O)Nc3cccc(C(F)(F)F)c3)sc2n1 [Compound 9, 3-Amino-4,6-dimethyl-thieno[2,3-b]pyridine-2-carboxylic acid (3-trifluoromethyl-phenyl)-amide] |  | < 5 µM |
| Nc1c(C(=O)Nc2nccs2)sc2nc3c(c(-c4ccccc4Cl)c12)CCCC3 [Compound 10, 3-Amino-4-(2-chloro-phenyl)-5,6,7,8-tetrahydro-thieno[2,3-b]quinoline-2-carboxylic acid thiazol-2-ylamide] |  | < 5 µM |
| NC(=O)c1sc2nc3c(c(-c4ccco4)c2c1N)CCCC3 [Compound 11, 3-Amino-4-furan-2-yl-5,6,7,8-tetrahydro-thieno[2,3-b]quinoline-2-carboxylic acid amide] | < 5 µM |  |
| Nc1c(C(=O)Nc2cccc(C(F)(F)F)c2)sc2nc3c(cc12)C(=O)CCC3 [Compound 12, 3-Amino-5-oxo-5,6,7,8-tetrahydro-thieno[2,3-b]quinoline-2-carboxylic acid (3-trifluoromethyl-phenyl)-amide] |  | < 5 µM |
| CN1CCc2nc3sc(C(=O)Nc4ccc(Cl)cc4)c(N)c3cc2C1 [Compound 13, 3-Amino-6-methyl-5,6,7,8-tetrahydro-thieno[2,3-b][1,6]naphthyridine-2-carboxylic acid (4-chloro-phenyl)-amide] |  | < 5 µM |
| CN1CCc2nc3sc(C(=O)NCc4ccc(F)cc4)c(N)c3cc2C1 [Compound 14, 3-Amino-6-methyl-5,6,7,8-tetrahydro-thieno[2,3-b][1,6]naphthyridine-2-carboxylic acid 4-fluoro-benzylamide] | < 5 µM |  |
| CCN(CC)C(=O)c1sc2nc3c(cc2c1N)CN(C)CC3 [Compound 15, 3-Amino-6-methyl-5,6,7,8-tetrahydro-thieno[2,3-b][1,6]naphthyridine-2-carboxylic acid diethylamide] | < 5 µM |  |
| CN1CCc2nc3sc(C(=O)Nc4ccc(F)c(F)c4)c(N)c3cc2C1 [Compound 16, 3-Amino-6-methyl-5,6,7,8-tetrahydro-thieno[2,3-b][1,6]naphthyridine-2-carboxylic acid (3,4-difluoro-phenyl)-amide] | < 5 µM |  |
| Cc1ccc(NC(=O)c2sc3nc4c(cc3c2N)CN(C)CC4)c(C)c1 [Compound 17, 3-Amino-6-methyl-5,6,7,8-tetrahydro-thieno[2,3-b][1,6]naphthyridine-2-carboxylic acid (2,4-dimethyl-phenyl)-amide] | < 5 µM |  |
| CN1CCc2nc3sc(C(=O)Nc4cccc(Cl)c4)c(N)c3cc2C1 [Compound 18, 3-Amino-6-methyl-5,6,7,8-tetrahydro-thieno[2,3-b][1,6]naphthyridine-2-carboxylic acid (3-chloro-phenyl)-amide] | < 5 µM |  |

| SMILES | EC50 [1] | EC50 (Vero, 48 h) |
| --- | --- | --- |
| CN1CCc2nc3sc(C(=O)Nc4ccccc4Cl)c(N)c3cc2C1 [Compound 19, 3-Amino-6-methyl-5,6,7,8-tetrahydro-thieno[2,3-b][1,6]naphthyridine-2-carboxylic acid (2-chloro-phenyl)-amide] | < 5 µM |  |
| CN1CCc2nc3sc(C(=O)Nc4ccc(N(C)C)cc4)c(N)c3cc2C1 [Compound 20, 3-Amino-6-methyl-5,6,7,8-tetrahydro-thieno[2,3-b][1,6]naphthyridine-2-carboxylic acid (4-dimethylamino-phenyl)-amide] | < 5 µM |  |
| CCN1CCc2nc3sc(C(=O)Nc4ccc(C(F)(F)F)cc4)c(N)c3cc2C1 [Compound 21, 3-Amino-6-ethyl-5,6,7,8-tetrahydro-thieno[2,3-b][1,6]naphthyridine-2-carboxylic acid (4-trifluoromethyl-phenyl)-amide] | < 5 µM |  |
| CCN1CCc2nc3sc(C(=O)N4CCc5ccccc5C4)c(N)c3cc2C1 [Compound 22, (3-Amino-6-ethyl-5,6,7,8-tetrahydro-thieno[2,3-b][1,6]naphthyridin-2-yl)-(3,4-dihydro-1H-isoquinolin-2-yl)-methanone] |  | < 5 µM |
| COc1ccc(NC(=O)c2sc3nc4c(cc3c2N)CN(C(C)C)CC4)cc1 [Compound 23, 3-Amino-6-isopropyl-5,6,7,8-tetrahydro-thieno[2,3-b][1,6]naphthyridine-2-carboxylic acid (4-methoxy-phenyl)-amide] | < 5 µM |  |
| CC(C)N1CCc2nc3sc(C(=O)Nc4cccc(F)c4)c(N)c3cc2C1 [Compound 24, 3-Amino-6-isopropyl-5,6,7,8-tetrahydro-thieno[2,3-b][1,6]naphthyridine-2-carboxylic acid (3-fluoro-phenyl)-amide] | < 5 µM |  |
| CCOC(=O)c1ccc(NC(=O)c2sc3nc4c(cc3c2N)CN(C(C)C)CC4)cc1 [Compound 25, 4-[(3-Amino-6-isopropyl-5,6,7,8-tetrahydro-thieno[2,3-b][1,6]naphthyridine-2-carbonyl)-amino]-benzoic acid ethyl ester] | < 5 µM |  |
| CC(C)N1CCc2nc3sc(C(=O)NCc4ccc5c(c4)OCO5)c(N)c3cc2C1 [Compound 26, 3-Amino-6-isopropyl-5,6,7,8-tetrahydro-thieno[2,3-b][1,6]naphthyridine-2-carboxylic acid (benzo[1,3]dioxol-5-ylmethyl)-amide] |  | < 5 µM |
| Cc1ccccc1NC(=O)c1sc2nc3c(c(-c4cccs4)c2c1N)CN(C)CC3 [Compound 27, 3-Amino-6-methyl-4-thiophen-2-yl-5,6,7,8-tetrahydro-thieno[2,3-b][1,6]naphthyridine-2-carboxylic acid o-tolylamide] | < 5 µM |  |
| COc1ccc(NC(=O)c2sc3nc4c(c(-c5cccs5)c3c2N)CN(C)CC4)cc1 [Compound 28, 3-Amino-6-methyl-4-thiophen-2-yl-5,6,7,8-tetrahydro-thieno[2,3-b][1,6]naphthyridine-2-carboxylic acid (4-methoxy-phenyl)-amide] | < 5 µM |  |
| CN1CCc2nc3sc(C(=O)Nc4ccc(F)cc4)c(N)c3cc2C1 [Compound 29, 3-Amino-6-methyl-5,6,7,8-tetrahydro-thieno[2,3-b][1,6]naphthyridine-2-carboxylic acid (4-fluoro-phenyl)-amide] | < 5 µM |  |
| CN1CCc2nc3sc(C(=O)Nc4ccc(OC(F)(F)F)cc4)c(N)c3cc2C1 [Compound 30, 3-Amino-6-methyl-5,6,7,8-tetrahydro-thieno[2,3-b][1,6]naphthyridine-2-carboxylic acid (4-trifluoromethoxy-phenyl)-amide] | < 5 µM |  |
| COc1ccc(Cl)cc1NC(=O)c1sc2nc3c(cc2c1N)CN(Cc1ccccc1)CC3 [Compound 31, 3-Amino-6-benzyl-5,6,7,8-tetrahydro-thieno[2,3-b][1,6]naphthyridine-2-carboxylic acid (5-chloro-2-methoxy-phenyl)-amide] | < 5 µM |  |
| CN1CCc2nc3sc(C(=O)NCCc4c[nH]c5ccccc45)c(N)c3cc2C1 [Compound 32, 3-Amino-6-methyl-5,6,7,8-tetrahydro-thieno[2,3-b][1,6]naphthyridine-2-carboxylic acid [2-(1H-indol-3-yl)-ethyl]-amide] | < 5 µM |  |
| CN1CCc2nc3sc(C(=O)Nc4ccc5c(c4)OCO5)c(N)c3cc2C1 [Compound 33, 3-Amino-6-methyl-5,6,7,8-tetrahydro-thieno[2,3-b][1,6]naphthyridine-2-carboxylic acid benzo[1,3]dioxol-5-ylamide] | < 5 µM |  |
| CN1CCc2nc3sc(C(=O)Nc4ccccc4)c(N)c3c(-c3cccs3)c2C1 [Compound 34, 3-Amino-6-methyl-4-thiophen-2-yl-5,6,7,8-tetrahydro-thieno[2,3-b][1,6]naphthyridine-2-carboxylic acid phenylamide] | < 5 µM |  |
| CN1CCc2nc3sc(C(=O)Nc4ccc(C(C)(C)C)cc4)c(N)c3cc2C1 [Compound 35, 3-Amino-6-methyl-5,6,7,8-tetrahydro-thieno[2,3-b][1,6]naphthyridine-2-carboxylic acid (4-tert-butyl-phenyl)-amide] | < 5 µM |  |
